Measured values from ChEMBL document CHEMBL5257070, “The Asymmetric Total Synthesis and Configuration Confirmation of Aplysiaenal and Nhatrangin A, Truncated Derivatives of Aplysiatoxin and Oscillatoxin” (J Nat Prod, 2023).

Legend:
[1] = test system: HCT-116; test: Cytotoxicity against human HCT-116 cells incubated for 72 hrs by MTT assay; type: functional, cell-based; details: HCT-116, 72 h
[2] = test system: L1210; test: Cytotoxicity against mouse L1210 cells incubated for 72 hrs by WST-8 method; type: functional, cell-based; details: L1210, 72 h

| SMILES | IC50 [1] [µM] | IC50 [2] [µM] |
| --- | --- | --- |
| CO[C@@H](CC[C@H](C)[C@@H](OC(=O)C[C@@H](O)[C@@H](C)O)[C@@H](C)C(=O)O)c1cccc(O)c1 | > 100 | > 100 |
| CO[C@@H](CC[C@H](C)/C=C(\C)C=O)c1cccc(O)c1 | > 100 | 93 |
| CO[C@@H](CC[C@H](C)[C@H]1O[C@@]2(C=C[C@@H]1C)[C@H](C(=O)O[C@H]1COC(=O)C1)C(=O)[C@H](C)CC2(C)C)c1cccc(O)c1 |  | 48 |
